Experimental data published in PubChem BioAssay (NCI).
Values joined by “and” are separate entries in the source; they are usually repeats but may differ in a detail not shown here. Identical values can stand only once.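 Compound exposure: 48 hours, 5 concentrations, 96-well plates. GI50 is the concentration that inhibits growth by half. TGI: concentration producing complete growth inhibition.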

Key:
Assay in all cases: growth of human tumour cells (NCI), 48 h
SK-MEL-2 melanoma = system: SK-MEL-2 melanoma
HT29 colon = system: HT29 colon
SF-539 CNS = system: SF-539 CNS
CAKI-1 renal = system: CAKI-1 renal
HOP-92 NSCLC = system: HOP-92 NSCLC
HCC-2998 colon = system: HCC-2998 colon
SK-OV-3 ovarian = system: SK-OV-3 ovarian
HCT-116 colon = system: HCT-116 colon
NCI/ADR-RES ovarian = system: NCI/ADR-RES ovarian
HL-60(TB) leukemia = system: HL-60(TB) leukemia

SMILES	GI50 (SK-MEL-2 melanoma)	TGI (SK-MEL-2 melanoma)	GI50 (HT29 colon)	TGI (HT29 colon)	GI50 (SF-539 CNS)	TGI (SF-539 CNS)	GI50 (CAKI-1 renal)	TGI (CAKI-1 renal)	GI50 (HOP-92 NSCLC)	TGI (HOP-92 NSCLC)	GI50 (HCC-2998 colon)	TGI (HCC-2998 colon)	GI50 (SK-OV-3 ovarian)	TGI (SK-OV-3 ovarian)	GI50 (HCT-116 colon)	TGI (HCT-116 colon)	GI50 (NCI/ADR-RES ovarian)	TGI (NCI/ADR-RES ovarian)	GI50 (HL-60(TB) leukemia)	TGI (HL-60(TB) leukemia)
CN1CCN(CCc2cccc(C(=O)c3cnn(-c4ccc(F)cc4)c3N)c2)CC1	> 25 µM	> 25 µM	> 25 µM	> 25 µM	> 25 µM	> 25 µM	> 25 µM	> 25 µM	> 25 µM	> 25 µM	> 25 µM	> 25 µM	> 25 µM	> 25 µM	> 25 µM	> 25 µM	> 25 µM	> 25 µM	> 25 µM	> 25 µM
C[C@H](Nc1ncnc2nc[nH]c12)c1cc2cccc(Cl)c2c(=O)n1-c1ccccc1	19.2 µM	72.6 µM	5.92 µM	> 100 µM	12.5 µM	> 96 µM	13.5 µM	> 100 µM	1.38 µM	69.7 µM	28.4 µM	> 100 µM	10.8 µM	> 100 µM	18.4 µM	> 100 µM	> 100 µM	> 100 µM	3.37 µM	99.5 µM
COc1cc(C2c3cc4c(cc3[C@@H](Nc3ccc(C#N)cc3)C3COC(=O)[C@H]23)OCO4)cc(OC)c1O (some centres not stated)	1.77 µM and 8.87 µM		1.61 µM	11.6 µM and 14 µM	0.431 µM	11.3 µM and 3.64 µM	0.228 µM	4.37 µM and 2.52 µM	0.685 µM	6.77 µM and 5.99 µM	1.02 µM	5.11 µM and 2.11 µM	3.29 µM and 1.34 µM	48.8 µM and 11.3 µM and > 100 µM	0.452 µM and 0.389 µM	10.8 µM and 2.45 µM and 11.4 µM	6.59 µM and 2.68 µM	11.6 µM and 41.3 µM and 21.2 µM		1.12 µM and 0.702 µM
COc1ccc(N2C(C)=C(C#N)C34C(=O)N(c5ccccc5)C(=O)C3=C(O)C=CC24O)cc1 (configuration not stated)	19.5 µM	46.3 µM	12.3 µM	28.3 µM	6.82 µM	25.3 µM	2.65 µM	16.6 µM	12.5 µM	45.3 µM	9.88 µM	23.6 µM	36.2 µM	> 100 µM	9.73 µM	25.5 µM	29 µM	91 µM	15.5 µM	65.9 µM
CCN(CC)c1ccc(C(=C2C=CC(=[N+](CC)Cc3cccc(S(=O)(=O)O)c3)C=C2)c2ccc(N(CC)Cc3cccc(S(=O)(=O)O)c3)cc2)cc1	10.5 µM	> 92.2 µM	3.4 µM	> 88.9 µM	3.57 µM	23.3 µM	24 µM	> 100 µM	15.2 µM	65.8 µM	5.78 µM	> 100 µM	5.04 µM	27.1 µM	3.18 µM	19.7 µM	> 100 µM	> 100 µM	4.38 µM	17.4 µM
CN(CCCN)CCCNc1nc2ccccc2c2[nH]c3ccccc3c12	0.306 µM	0.835 µM	0.193 µM	0.951 µM	0.324 µM	0.943 µM	0.259 µM	0.754 µM	0.208 µM	0.736 µM	0.113 µM	0.271 µM	2.07 µM	7.29 µM	0.173 µM	1.2 µM	1.48 µM	10.8 µM	0.138 µM	0.59 µM
CC(C)(C)C[C@H]1NC(C(=O)NCC[C@H](O)CO)[C@H](c2cccc(Cl)c2)[C@@]12C(=O)Nc1cc(Cl)c(F)cc12 (some centres not stated)	14.4 µM	28.6 µM	17 µM	32.4 µM	15.5 µM	31.8 µM	3.84 µM	18.1 µM	13.3 µM	28.4 µM	16.2 µM	31.1 µM	16.3 µM	34.9 µM	3.07 µM	16.3 µM	37 µM	> 100 µM	14.7 µM	40.1 µM
ClCCn1c(CCl)nc2ccc(Cl)cc21	1.65 µM	3.6 µM	0.436 µM	1.39 µM	1.44 µM	2.82 µM	1.6 µM	3.2 µM	0.938 µM	2.63 µM	2.01 µM	3.87 µM	0.305 µM	0.853 µM	0.272 µM	0.731 µM	1.21 µM	4.36 µM	1.89 µM	4.11 µM
COC(=O)[C@]12CC[C@@H](C)[C@H](C)[C@@H]1C1=CC[C@@H]3[C@@]4(C)C[C@@H](OC(C)=O)[C@H](O)[C@@](C)(COC(C)=O)[C@@H]4[C@H](O)C[C@@]3(C)[C@]1(C)CC2	2.84 µM	7.39 µM	1.82 µM	3.7 µM	3.47 µM	13.3 µM	2.82 µM	10.9 µM	1.53 µM	5.68 µM	2.14 µM	4.57 µM	3.27 µM	10.3 µM	1.95 µM	4.11 µM	2.68 µM	7.54 µM	2.11 µM	5.42 µM
COC1(C(=O)N[C@@H](C)c2ccc(-n3cc(F)cn3)nc2)CCC(c2nc(C)cc(Nc3cc(C)[nH]n3)n2)CC1 (some centres not stated)	6.82 µM	23.2 µM	2.31 µM	22.4 µM	0.314 µM	1.56 µM	0.889 µM	2.23 µM	0.481 µM	2.58 µM	11.1 µM	23.3 µM	1.11 µM	5.07 µM	2.61 µM	14 µM	3.74 µM	17.7 µM	19.5 µM	41.8 µM
CCCC[C@H](NC(=O)[C@H]1CCCN1C)C(=O)N(C)[C@H](C[C@@H](OC(C)=O)c1nc(C(=O)N[C@@H](Cc2ccccc2)C[C@H](C)C(=O)OCC)cs1)C(C)C	0.00613 µM	8.71 µM	0.00974 µM	0.0414 µM	0.022 µM	0.241 µM			1.9 µM	32.7 µM	0.0113 µM	10.9 µM	0.0969 µM	> 33.3 µM	0.0125 µM	> 33.3 µM	0.542 µM	> 33.3 µM	0.0058 µM	0.0253 µM
Nc1c(C(=O)Nc2cccc([N+](=O)[O-])c2)sc2nc3c(cc12)C(O)CCC3 (configuration not stated)	5.4 µM	> 92.2 µM	2.89 µM	> 100 µM	5.06 µM	> 93.7 µM	> 100 µM	> 100 µM	9.54 µM	> 67 µM	> 100 µM	> 100 µM	10.2 µM	> 100 µM	4.09 µM	> 100 µM	4.72 µM	> 100 µM	2.37 µM	> 100 µM
CNC(=O)OCc1nc(SC2CCCCO2)n(C)c1COC(=O)NC (configuration not stated)		> 100 µM		> 100 µM		> 100 µM		> 100 µM		> 100 µM		> 100 µM		> 100 µM		> 100 µM		> 100 µM		> 100 µM
COc1ccc2nc3cc([N+](=O)[O-])ccc3c(NCCCCCN(C)C)c2c1	0.0208 µM	0.214 µM	0.0643 µM	0.38 µM	0.319 µM	1.66 µM	0.306 µM	3.04 µM	0.148 µM	0.49 µM			0.351 µM	2.36 µM	0.0453 µM	1.18 µM	2.13 µM	13.5 µM	0.14 µM	2.52 µM
COC(=O)[C@H](Cc1cn(C)cn1)NC(=O)[C@H](Cc1c[nH]c2ccccc12)NC(=O)Nc1cc(C(F)(F)F)cc(C(F)(F)F)c1	> 10 µM	> 10 µM	> 10 µM	> 10 µM	> 10 µM	> 10 µM	> 10 µM	> 10 µM	> 10 µM	> 10 µM	> 10 µM	> 10 µM	> 10 µM	> 10 µM	> 10 µM	> 10 µM	> 10 µM	> 10 µM	> 10 µM	> 10 µM
COc1cc(Cl)cc(-c2nn(C(=O)NCCN3CCOCC3)cc2-c2ccncc2)c1	10.9 µM	44.3 µM	3.98 µM	> 100 µM	4.57 µM	25.9 µM	2.49 µM	18.7 µM	4.35 µM	84.6 µM	7.77 µM	39.7 µM	3.75 µM	19.7 µM	4.13 µM	51.2 µM	2.87 µM	> 100 µM	3.22 µM	95.1 µM
Cc1ccc(S(=O)(=O)N2CCSCCSCCSCCSCC2)cc1		> 53.6 µM		> 100 µM		43.7 µM		66.4 µM		23.4 µM		> 100 µM		46 µM		> 100 µM		77.1 µM		> 100 µM
O=C(Cn1ccc(=O)[nH]c1=O)Nc1ccc(C(=O)O)c(O)c1		> 100 µM		> 100 µM				> 100 µM		> 100 µM						> 100 µM		> 100 µM		> 100 µM
Cc1ccc(/C=C2\CN(C(=O)OC(C)(C)C)C/C(=C\c3ccc(C)cc3)C2=O)cc1		> 100 µM	0.46 µM	> 40.7 µM			0.576 µM	> 100 µM	8.97 µM	> 100 µM	0.268 µM	0.927 µM		97.5 µM	0.058 µM	13.7 µM	0.281 µM	> 100 µM	0.0409 µM	0.473 µM
O=C(CC(=O)CC(O)(C(F)(F)F)C(F)(F)F)CC(O)(C(F)(F)F)C(F)(F)F		> 10 µM		> 10 µM		> 10 µM		> 10 µM		> 10 µM				> 10 µM		> 10 µM		> 10 µM		> 10 µM
Cc1ccc2c(ccc3c[n+]4c5ccccc5ccc4n32)c1	1.64 µM	3.9 µM	2.08 µM	8.77 µM			8.25 µM	> 100 µM	1.54 µM	5.47 µM	1.27 µM	2.98 µM	1.76 µM	6.94 µM	1.85 µM	7.51 µM	> 100 µM	> 100 µM	2.5 µM	10.2 µM
CCN1C(=O)N(CC)C2C1NN=c1s/c(=C\c3cccnc3)c(=O)n12 (configuration not stated)	> 100 µM	> 100 µM	0.386 µM	> 100 µM	0.319 µM	2.51 µM	0.346 µM	> 100 µM		> 100 µM	1.29 µM	> 100 µM	2.02 µM	> 100 µM	0.478 µM	> 100 µM	0.38 µM	> 100 µM	0.395 µM	
CNC(=O)n1ccc2cc(Oc3ccnc(NC(=O)c4ccc(C5CCN(CCO)CC5)cc4)c3)c(OCCOC)cc21	8.57 µM	23.2 µM	0.801 µM	11.1 µM	1.12 µM	2.56 µM	3.08 µM	11.3 µM	3.48 µM	20.6 µM	8.57 µM	21.3 µM	10.5 µM	23.1 µM	2.63 µM	11.9 µM	12.9 µM	42.4 µM	2.13 µM	4.58 µM
CCCCOc1ccc(NC(N)=Nc2ccc(Cl)cc2)cc1		9.73 µM		11.3 µM		6.52 µM				16 µM		2.64 µM		22.7 µM		12.4 µM		18.9 µM		22.5 µM
O=C1OC(=O)C(c2c[nH]c3ccccc23)=C1c1c[nH]c2ccccc12	> 25 µM	> 25 µM	> 25 µM	> 25 µM	> 25 µM	> 25 µM	> 25 µM	> 25 µM			> 25 µM	> 25 µM	> 25 µM	> 25 µM	> 25 µM	> 25 µM	> 25 µM	> 25 µM	> 25 µM	> 25 µM
COC(=O)[C@@H](C)C[C@H](Cc1ccccc1)NC(=O)c1nc([C@@H](C[C@H](C(C)C)N(C)C(=O)[C@@H](NC(=O)[C@H]2CCCCN2C)C(C)C)OC(C)=O)sc1C	< 0.00167 µM	> 16.7 µM	< 0.00167 µM	0.088 µM	0.00239 µM	0.00822 µM			0.00323 µM	16.5 µM	< 0.00167 µM	> 16.7 µM	< 0.00167 µM	> 16.7 µM	< 0.00167 µM	> 9.5 µM	0.0521 µM	> 16.7 µM	< 0.00167 µM	< 0.00167 µM
